Assay results as given in article PMC10447463, “Data-mining unveils structure–property–activity correlation of viral infectivity enhancing self-assembling peptides” (Nature Communications, 2023).
Where two headings read alike, the source gives them in different places.

Legend:
Type in all cases: physicochemical
[1] = Conversion rate (CR) assay with fluorescamine; set-up: key to CR: % = 100−100×filtrate/original fluorescence intensity
Summary of the method: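 1 mg/mL PNF solutions lyophilized and powders measured by diamond ATR FT-IR (2 cm^-1 resolution, 64 scans); β-sheet content calculated per a prior method. For CR, PNF solution centrifuged through 3 kDa MWCO filter (16200 x g, 4 °C, 45 min); filtrate and unfiltered sample lyophilized, dissolved in DMSO, reacted with fluorescamine.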

[2] = Aggregate analysis by widefield fluorescence microscopy
Summary of the method: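 First, each peptide (1 mg/mL in PBS, from DMSO stock) incubates 1 d at room temperature; next, it is mixed with 50 µM ThT to 0.1 mg/mL; finally, widefield images at 10x (ex 480/40, em 527/30 nm) are analysed by object counting for particles exceeding 10 µm^2, in triplicate.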

[3] = Turbidity, derived count rate of scattered light; conditions: for Count Rate: derived count rate of scattered light (turbidity); for Log10 Count Rate: turbidity, derived count rate of scattered light, data of Figure 2D
[4] = Fig S8 panels A, C, 3 fields of 1330 µm x 1330 µm
[5] = Fig S8 panels B, D, average aggregate area, 3 fields of 1330 µm x 1330 µm
[6] = Fig S8 panels B, D, median aggregate area, 3 fields of 1330 µm x 1330 µm
[7] = Fig S8 panels B, D, 3 fields of 1330 µm x 1330 µm
[8] = Fig S8 panels B, D, widefield fluorescence microscopy, 3 fields of 1330 µm x 1330 µm

With KIKIQINMWQ [JG1] the “Conversion Rate / %” value [1] was 95.68% and the “Conversion Rate / %” value ([1]; fluorescamine assay) was 95.68%.
For CKIKQII [MG4a], the “Avg Area in 3 *(1330 µm *1330 µm)” value ([2]; Fig S8 panels A, C) was 110.6, the “Log 10 Number of aggregates in 3 * (1330 µm *1330 µm)” value (from here on “Log 10 Number of aggregates in 3 *”) ([2]; Fig S8 panels A, C) was 1.8789 and the “Median Area in 3 * (1330 µm *1330 µm)” value ([2]; Fig S8 panels A, C) was 36.476. The “log Avg Area in 3 * ( (1330 µm *1330 µm))” value (“log Avg Area in 3 *” for short) ([2]; Fig S8 panels A, C) was 2.044, the “log Median Area in 3 * ( (1330 µm *1330 µm))” value (“log Median Area in 3 *” for short) ([2]; Fig S8 panels A, C) was 1.562 and the “log Total Area of all particles in 3 * (1330 µm *1330 µm)” value (“log Total Area of all particles in 3 *” below) ([2]; Fig S8 panels A, C) was 3.923. The “Number of aggregates in 3 * (1330 µm *1330 µm)” value [2, 4] was 75.67, the “Avg Area in 3 *(1330 µm *1330 µm)” value [2, 5] was 110.6 and the “Median Area in 3 * (1330 µm *1330 µm)” value [2, 6] was 36.476. The “Total Area of all particles in 3 * (1330 µm *1330 µm)” value [2, 7] was 8372.136 and the “Number of aggregates in 3 * (1330 µm *1330 µm)” value [2, 8] was 75.67.
For CEIEIQINMWQ [TM143], the “Conversion Rate / %” value [1] was 59.9% and the “Conversion Rate / %” value ([1]; fluorescamine assay) was 59.9%.
In the case of KIKQIINMWQ [JG2], the “Conversion Rate / %” value [1] was 94.17%, the “Conversion Rate / %” value ([1]; fluorescamine assay) was 94.17% and the “Avg Area in 3 *(1330 µm *1330 µm)” value ([2]; Fig S8 panels A, C) was 398.2. For the same substance, the “Log 10 Number of aggregates in 3 *” value ([2]; Fig S8 panels A, C) was 1.591, the “Median Area in 3 * (1330 µm *1330 µm)” value ([2]; Fig S8 panels A, C) was 199.4905 and the “log Avg Area in 3 *” value ([2]; Fig S8 panels A, C) was 2.6. The “log Median Area in 3 *” value ([2]; Fig S8 panels A, C) was 2.3, the “log Total Area of all particles in 3 *” value ([2]; Fig S8 panels A, C) was 4.191 and the “Number of aggregates in 3 * (1330 µm *1330 µm)” value [2, 4] was 39. The “Avg Area in 3 *(1330 µm *1330 µm)” value [2, 5] was 398.2, the “Median Area in 3 * (1330 µm *1330 µm)” value [2, 6] was 199.4905 and the “Total Area of all particles in 3 * (1330 µm *1330 µm)” value [2, 7] was 15530.404. For the same substance, the “Number of aggregates in 3 * (1330 µm *1330 µm)” value [2, 8] was 39.
For KFKFQF [JJA6], the “Conversion Rate / %” value [1] was 51.79% and the “Conversion Rate / %” value ([1]; fluorescamine assay) was 51.79%.
For CKFKQFFNMWQ [CK13], the “Conversion Rate / %” value [1] was 98.72% and the “Conversion Rate / %” value ([1]; fluorescamine assay) was 98.72%.
In the case of CKFKFQFW [TM72], the “Avg Area in 3 *(1330 µm *1330 µm)” value ([2]; Fig S8 panels A, C) was 28.12, the “Log 10 Number of aggregates in 3 *” value ([2]; Fig S8 panels A, C) was 2.713 and the “Median Area in 3 * (1330 µm *1330 µm)” value ([2]; Fig S8 panels A, C) was 16.689. For the same substance, the “log Avg Area in 3 *” value ([2]; Fig S8 panels A, C) was 1.449, the “log Median Area in 3 *” value ([2]; Fig S8 panels A, C) was 1.222 and the “log Total Area of all particles in 3 *” value ([2]; Fig S8 panels A, C) was 4.162. The “Number of aggregates in 3 * (1330 µm *1330 µm)” value [2, 4] was 517, the “Avg Area in 3 *(1330 µm *1330 µm)” value [2, 5] was 28.12 and the “Median Area in 3 * (1330 µm *1330 µm)” value [2, 6] was 16.689. For the same substance, the “Total Area of all particles in 3 * (1330 µm *1330 µm)” value [2, 7] was 14537.202 and the “Number of aggregates in 3 * (1330 µm *1330 µm)” value [2, 8] was 517.
With QCKFKQFFNM [CK11] the “Conversion Rate / %” value [1] was 98.67% and the “Conversion Rate / %” value ([1]; fluorescamine assay) was 98.67%.
In the case of RGDCKFKFQF [TM64/ CN15], the “Conversion Rate / %” value ([1]; fluorescamine assay) was 85.47%.
For CKIKIQINM [MG2], the “Conversion Rate / %” value [1] was 79% and the “Conversion Rate / %” value ([1]; fluorescamine assay) was 79%.
In the case of CKIKIQINMWQ, the CR / % ([1]; Fig. S7 panel B, conversion rate, fluorescamine assay) was 89.1%, the CR ([1]; conversion rate, fluorescamine assay) was 89.15 and the “Count Rate” value [3] was 1881. For the same substance, the “Log10 Count Rate” value [3] was 3.274.
With QCKFKFQFNM [CK8] the “Conversion Rate / %” value [1] was 98.94% and the “Conversion Rate / %” value ([1]; fluorescamine assay) was 98.94%.
For CKIKIQINMWQ [MG1], the “Conversion Rate / %” value [1] was 91.29% and the “Conversion Rate / %” value ([1]; fluorescamine assay) was 91.29%.
With KFKFQFNM [BL6a] the “Conversion Rate / %” value [1] was 98.53% and the “Conversion Rate / %” value ([1]; fluorescamine assay) was 98.53%.
For QCKIKIQINM [CK2], the “Conversion Rate / %” value [1] was 89.7% and the “Conversion Rate / %” value ([1]; fluorescamine assay) was 89.7%.
For KLKQLL, the “Count Rate” value [3] was 319.9 and the “Log10 Count Rate” value [3] was 2.505.
With KFKFQFNMW the “Count Rate” value [3] was 610.2 and the “Log10 Count Rate” value [3] was 2.785.
For CRFRVPF [CN8], the “Conversion Rate / %” value ([1]; fluorescamine assay) was 97.05%.
In the case of CKFKQFF [CK15], the “Conversion Rate / %” value [1] was 90.05%, the “Conversion Rate / %” value ([1]; fluorescamine assay) was 90.05% and the “Avg Area in 3 *(1330 µm *1330 µm)” value ([2]; Fig S8 panels A, C) was 2578. For the same substance, the “Log 10 Number of aggregates in 3 *” value ([2]; Fig S8 panels A, C) was 0.7533, the “Median Area in 3 * (1330 µm *1330 µm)” value ([2]; Fig S8 panels A, C) was 2243 and the “log Avg Area in 3 *” value ([2]; Fig S8 panels A, C) was 3.411. The “log Median Area in 3 *” value ([2]; Fig S8 panels A, C) was 3.351, the “log Total Area of all particles in 3 *” value ([2]; Fig S8 panels A, C) was 4.165 and the “Number of aggregates in 3 * (1330 µm *1330 µm)” value [2, 4] was 5.667. For the same substance, the “Avg Area in 3 *(1330 µm *1330 µm)” value [2, 5] was 2578, the “Median Area in 3 * (1330 µm *1330 µm)” value [2, 6] was 2243 and the “Total Area of all particles in 3 * (1330 µm *1330 µm)” value [2, 7] was 14606.95267. The “Number of aggregates in 3 * (1330 µm *1330 µm)” value [2, 8] was 5.667.
With KAKAQANMWQ [JG3] the “Conversion Rate / %” value [1] was 47.47% and the “Conversion Rate / %” value ([1]; fluorescamine assay) was 47.47%.
